Results published in patent US20180312473A1, “PHENAZINE DERIVATIVES AS ANTIMICROBIAL AGENTS” (priority 2015, published 2018).
≈ marks a conversion by molar mass, not a printed value.

System: MRSA-2 (methicillin-resistant Staphylococcus aureus clinical isolate)
Assay: MIC assay (broth microdilution, CLSI)
Assay type: cell-based
Details: Staphylococcus aureus, MRSA, Table 2A; read-out: MIC, MRSA-2

Going from `Oc1c(Cl)cc(Cl)c2nc3ccccc3nc12` [Compound 3, 2,4-Dichloro-1-hydroxyphenazine] to `Oc1c(Cl)cc(I)c2nc3ccccc3nc12` [Compound 6, 2-Chloro-4-iodo-1-hydroxyphenazine], the MIC falls from 3.13 µM (≈ 0.83 µg/mL) to 1.56 µM (≈ 0.556 µg/mL) (2-fold).

Same assay, conditions: Staphylococcus aureus, MRSA, Table 7; a midpoint of 2-fold range; b lowest concentration tested; read-out: MIC, MRSA-2

First: Oc1c(Cl)cc(Cl)c2nc3ccccc3nc12 [Compound 3, 2,4-Dichloro-1-hydroxyphenazine]
Second: Oc1c(Cl)cc(I)c2nc3ccccc3nc12 [Compound 6, 2-Chloro-4-iodo-1-hydroxyphenazine]
The MIC of the first is 2-fold higher: 3.13 µM (≈ 0.83 µg/mL) for the first, 1.56 µM (≈ 0.556 µg/mL) for the second.

System: MRSA-1 (methicillin-resistant Staphylococcus aureus clinical isolate)
Assay: MIC assay (broth microdilution, CLSI)
Assay type: cell-based
Details: Staphylococcus aureus, MRSA, Table 2A; read-out: MIC, MRSA-1

First: Oc1c(Cl)cc(Cl)c2nc3ccccc3nc12 [Compound 3, 2,4-Dichloro-1-hydroxyphenazine]
Second: Oc1c(Cl)cc(I)c2nc3ccccc3nc12 [Compound 6, 2-Chloro-4-iodo-1-hydroxyphenazine]
The MIC of the first is 2-fold higher: 3.13 µM (≈ 0.83 µg/mL) for the first, 1.56 µM (≈ 0.556 µg/mL) for the second.

System: Staphylococcus epidermidis (ATCC 12228)
Assay: MIC assay (broth microdilution, CLSI)
Assay type: cell-based
Details: Staphylococcus epidermidis, ATCC12228; Table 2A; read-out: MIC, Staphylococcus epidermidis (ATCC 12228)

Compared with `Oc1c(Cl)cc(Cl)c2nc3ccccc3nc12` [Compound 3, 2,4-Dichloro-1-hydroxyphenazine], `Oc1c(Cl)cc(I)c2nc3ccccc3nc12` [Compound 6, 2-Chloro-4-iodo-1-hydroxyphenazine] is 2-fold lower in MIC: 3.13 µM (≈ 0.83 µg/mL) for the first, 1.56 µM (≈ 0.556 µg/mL) for the second.

Same assay, conditions: Staphylococcus epidermidis, ATCC12228; Table 7; b lowest concentration tested; read-out: MIC, S. epidermidis 12228

Going from `Oc1c(Cl)cc(Cl)c2nc3ccccc3nc12` [Compound 3, 2,4-Dichloro-1-hydroxyphenazine] to `Oc1c(Cl)cc(I)c2nc3ccccc3nc12` [Compound 6, 2-Chloro-4-iodo-1-hydroxyphenazine], the MIC falls from 3.13 µM (≈ 0.83 µg/mL) to 1.56 µM (≈ 0.556 µg/mL) (2-fold).

System: Staphylococcus epidermidis (ATCC 35984), MRSE
Assay: MIC assay (broth microdilution, CLSI)
Assay type: cell-based
Details: Staphylococcus epidermidis, Table 2A; read-out: MIC, Staphylococcus epidermidis (ATCC 35984)

Compared with `Oc1c(Cl)cc(Cl)c2nc3ccccc3nc12` [Compound 3, 2,4-Dichloro-1-hydroxyphenazine], `Oc1c(Cl)cc(I)c2nc3ccccc3nc12` [Compound 6, 2-Chloro-4-iodo-1-hydroxyphenazine] is 2-fold lower in MIC: 3.13 µM (≈ 0.83 µg/mL) for the first, 1.56 µM (≈ 0.556 µg/mL) for the second.

Same assay, conditions: Staphylococcus epidermidis, Table 7; read-out: MIC, MRSE 35984

First: Oc1c(Cl)cc(Cl)c2nc3ccccc3nc12 [Compound 3, 2,4-Dichloro-1-hydroxyphenazine]
Second: Oc1c(Cl)cc(I)c2nc3ccccc3nc12 [Compound 6, 2-Chloro-4-iodo-1-hydroxyphenazine]
The MIC of the first is 2-fold higher: 3.13 µM (≈ 0.83 µg/mL) for the first, 1.56 µM (≈ 0.556 µg/mL) for the second.

System: Enterococcus faecium (ATCC 700221), VRE
Assay: MIC assay (broth microdilution, CLSI)
Assay type: cell-based
Details: Enterococcus faecium, Table 2A; read-out: MIC, Enterococcus faecium (ATCC 700221)

Compared with `Oc1c(Cl)cc(Cl)c2nc3ccccc3nc12` [Compound 3, 2,4-Dichloro-1-hydroxyphenazine], `Oc1c(Cl)cc(I)c2nc3ccccc3nc12` [Compound 6, 2-Chloro-4-iodo-1-hydroxyphenazine] is 2-fold lower in MIC: 12.5 µM (≈ 3.31 µg/mL) for the first, 6.25 µM (≈ 2.23 µg/mL) for the second.

Same assay, conditions: Table 7; b lowest concentration tested; read-out: MIC, VRE 700221

Compared with `Oc1c(Cl)cc(Cl)c2nc3ccccc3nc12` [Compound 3, 2,4-Dichloro-1-hydroxyphenazine], `Oc1c(Cl)cc(I)c2nc3ccccc3nc12` [Compound 6, 2-Chloro-4-iodo-1-hydroxyphenazine] is 2-fold lower in MIC: 12.5 µM (≈ 3.31 µg/mL) for the first, 6.25 µM (≈ 2.23 µg/mL) for the second.

System: not listed separately
Assay: in vitro
Assay type: cell-based
Details: human
Procedure: (§1) The cytotoxicities of select compounds of the invention against HeLa cells were determined. HeLa cytotoxicity was assessed using the LDH release assay described by CYTOTOX96 (Promega G1780). HeLa cells were grown in Dulbecco's Modified Eagle Medium (DMEM; Gibco) supplemented with 10% Fetal Bovine Serum (FBS) at 37° C. with 5% CO2. […] Triton X-100 (at 2% v/v) was used as the positive control for maximum lactate dehydrogenate (LDH) activity in this assay (e.g., complete cell death), while “medium only” lanes served as negative control lanes (e.g., no cell death). DMSO was used as the vehicle control. […] Finally, Stop Solution (50 μL) was added to the incubating plates, and the absorbance was measured at 490 nm.
(§2) HeLa cytotoxicity was assessed using the LDH release assay described by CYTOTOX96 (Promega G1780). HeLa cells were grown in Dulbecco's Modified Eagle Medium (DMEM; Gibco) supplemented with 10% Fetal Bovine Serum (FBS) at 37° C. with 5% CO2. […] Triton X-100 (at 2% v/v) was used as the positive control for maximum lactate dehydrogenate (LDH) activity in this assay (e.g., complete cell death), while “medium only” lanes served as negative control lanes (e.g., no cell death). DMSO was used as our vehicle control. […] Finally, Stop Solution (50 μL) was added to the incubating plates and the absorbance was measured at 490 nm. Results are from three independent experiments (FIG. 19)

In the case of `Oc1c(Cl)cc(I)c2nc3ccccc3nc12` [Compound 6, 2-Chloro-4-iodo-1-hydroxyphenazine], the IC50 at 24 h is reported as over 100 µM.

System: HeLa cells
Assay: in vitro
Assay type: cell-based
Details: human, 24 h
Procedure: as §1, §2

For `Oc1c(Cl)cc(I)c2nc3ccccc3nc12` [Compound 6, 2-Chloro-4-iodo-1-hydroxyphenazine], the IC50 was over 100 µM.

System: human red blood cells
Assay: Hemolysis assay with red blood cells
Details: human, 1 h, 200 μM, pH 7.2
Procedure: The hemolysis activities of select compounds of the invention were determined. […] The washing was repeated three times with the buffer. In 96-well plate, test compounds were added to the buffer from DMSO stocks. […] The plate was then incubated for 1 hour at 37° C. After incubation, the plate was centrifuged for 5 minutes at 3,500 rpm. Then 80 μL of the supernatant was transferred to another 96-well plate, and the optical density (OD) was read at 405 nm. DMSO served as the negative control (0% hemolysis), while Triton X served as the positive control (100% hemolysis). The percent of hemolysis was calculated as (OD405 of the compound−OD405 of DMSO)/(OD405 of Triton X−OD405 of the buffer).
The washing was repeated three times with the buffer. In 96-well plate, test compounds were added to the buffer from DMSO stocks. […] The plate was then incubated for 1 hour at 37° C. After incubation, the plate was centrifuged for 5 minutes at 3,500 rpm. Then 80 μL of the supernatant was transferred to another 96-well plate and the optical density (OD) was read at 405 nm. DMSO served as our negative control (0% hemolysis) while Triton X served as our positive control (100% hemolysis). The percent of hemolysis was calculated as (OD405 of the test compound−OD405 DMSO)/(OD405 Triton X−OD405 buffer) from three independent experiments.

For `Oc1c(Cl)cc(Cl)c2nc3ccccc3nc12` [Compound 3, 2,4-Dichloro-1-hydroxyphenazine], the “% Hemolysis (200 μM)” value was at most 1%.

For `Oc1c(Cl)cc(Cl)c2nc3ccccc3nc12` [Compound 3, 2,4-Dichloro-1-hydroxyphenazine], the “% Hemolysis at 200 μM” value was at most 1%.

For `Oc1c(Cl)cc(I)c2nc3ccccc3nc12` [Compound 6, 2-Chloro-4-iodo-1-hydroxyphenazine], the “% Hemolysis (200 μM)” value was 5.1%.

System: MRSA-2 planktonic cells and biofilms
Assay: Calgary Biofilm Device (CBD) assay, MBC/MBEC
Assay type: cell-based, Staphylococcus aureus
Details: Staphylococcus aureus, MRSA, Table 4; read-out: MBC, MRSA-2

Compared with `Oc1c(Cl)cc(Cl)c2nc3ccccc3nc12` [Compound 3, 2,4-Dichloro-1-hydroxyphenazine], `Oc1c(Cl)cc(I)c2nc3ccccc3nc12` [Compound 6, 2-Chloro-4-iodo-1-hydroxyphenazine] is 4-fold lower in MBC: 62.5 µM (≈ 16.6 µg/mL) for the first, 15.6 µM (≈ 5.56 µg/mL) for the second.

Same assay, conditions: Staphylococcus aureus, MRSA, Table 8; a/b 2-/4-fold range in independent experiments; read-out: MRSA-2 MBC

Going from `Oc1c(Cl)cc(Cl)c2nc3ccccc3nc12` [Compound 3, 2,4-Dichloro-1-hydroxyphenazine] to `Oc1c(Cl)cc(I)c2nc3ccccc3nc12` [Compound 6, 2-Chloro-4-iodo-1-hydroxyphenazine], the MBC falls from 62.5 µM (≈ 16.6 µg/mL) to 15.6 µM (≈ 5.56 µg/mL) (4-fold).

Same assay, conditions: Table 4

For `Oc1c(Cl)cc(Cl)c2nc3ccccc3nc12` [Compound 3, 2,4-Dichloro-1-hydroxyphenazine], the “MBEC:MBC ratio, MRSA-2” value was over 16.0.

In the case of `Oc1c(Cl)cc(I)c2nc3ccccc3nc12` [Compound 6, 2-Chloro-4-iodo-1-hydroxyphenazine], the “MBEC:MBC ratio, MRSA-2” value is reported as 8.0.

System: not given
Assay: not given
Details: not given

First: Oc1c(Cl)cc(Cl)c2nc3ccccc3nc12 [Compound 3, 2,4-Dichloro-1-hydroxyphenazine]
Second: Oc1c(Cl)cc(I)c2nc3ccccc3nc12 [Compound 6, 2-Chloro-4-iodo-1-hydroxyphenazine]
The melting point of the first is higher: 205 to 207 °C for the first, 183 to 185 °C for the second.

System: MRSA BAA-1707
Assay: MIC assay (broth microdilution, CLSI)
Details: Staphylococcus aureus, read-out: MIC, MRSA BAA-1707

First: Oc1c(Cl)cc(Cl)c2nc3ccccc3nc12 [Compound 3, 2,4-Dichloro-1-hydroxyphenazine]
Second: Oc1c(Cl)cc(I)c2nc3ccccc3nc12 [Compound 6, 2-Chloro-4-iodo-1-hydroxyphenazine]
The MIC of the first is 2-fold higher: 3.13 µM (≈ 0.83 µg/mL) for the first, 1.56 µM (≈ 0.556 µg/mL) for the second.

System: MRSA BAA-44
Assay: MIC assay (broth microdilution, CLSI)
Details: Staphylococcus aureus, read-out: MIC, MRSA BAA-44

Going from `Oc1c(Cl)cc(Cl)c2nc3ccccc3nc12` [Compound 3, 2,4-Dichloro-1-hydroxyphenazine] to `Oc1c(Cl)cc(I)c2nc3ccccc3nc12` [Compound 6, 2-Chloro-4-iodo-1-hydroxyphenazine], the MIC falls from 3.13 µM (≈ 0.83 µg/mL) to 1.56 µM (≈ 0.556 µg/mL) (2-fold).
